Converted amounts (≈) assume the structure as drawn. Square brackets hold non-standard residues; d marks the D form. Peptide text beside a SMILES is read from it. * marks the point of attachment. Palmitoyl = CCCCCCCCCCCCCCCC(=O)*; Dab = NCC[C@H](N)C(=O)O
What was measured:
[1] = system: MCF-7 breast cancer cell line; format: cell-based, human
[2] = system: Staphylococcus aureus ATCC 25923; format: cell-based; settings: ATCC 25923, 18 h
Description: (§1) Fmoc-Lys(Boc)-OH and the coupling reagents were purchased from GL Biochem (Shanghai, China). Palmitoyl Fmoc-amino acids: Fmoc-Lys(C16)-OH, Fmoc-Orn(C16)-OH, Fmoc-Dab(C16)-OH, and Fmoc-Dap(C16)-OH were acquired from Iris Biotech GmbH (Marktredwitz, Germany). The resin and solvents were purchases from Rapp Polymere (Tübingen, Germany), Merck (Darmstadt, Germany), and Avantor Performance Materials (Gliwice, Poland), respectively. The phospholipids, 1,2-dipalmitoyl-sn-glycero-3-phosphocholine (DPPC), 1,2-dipalmitoyl-sn-glycero-3-[phospho-rac-(1-glycerol)] (DPPG), 1-palmitoyl-2-oleoyl-glycero-3-phosphocholine (POPC) and 1-palmitoyl-2-oleoyl-sn-glycero-3-[phospho-rac-(1-glycerol)] (POPG), were purchased from Avanti Polar Lipids (Alabaster, AL, USA). LPS E. coli 055:B5 and phosphate buffered saline (PBS) were from Sigma-Aldrich (Steinheim, Germany). The Mueller Hinton broth was bought from BIOCORP (Warsaw, Poland) and the RPMI-1640 medium from Sigma-Aldrich (Steinheim, Germany). LIVE/DEAD™ BacLight™ Bacterial Viability Kit was obtained from Thermo Fisher Scientific (Waltham, MA, USA). Bacterial strains (Escherichia coli ATCC 25922, Pseudomonas aeruginosa ATCC 9027, Staphylococcus aureus ATCC 25923, Staphylococcus epidermidis ATCC 1922) and the fungal strain (Candida albicans ATCC 10231) were obtained from the Polish Collection of Microorganisms, Polish Academy of Science, Institute of Immunology and Experimental Therapy, Wroclaw, Poland.
(§2) Antimicrobial activity of the lipopeptides was determined according to the broth microdilution guidelines recommended by the Clinical and Laboratory Standards Institute (CLSI). Minimum inhibitory concentrations (MICs) were assumed as the lowest concentration of the peptide solution, at which the visible growth of microorganisms was inhibited. MIC values of lipopeptides against bacteria were evaluated in the Mueller–Hinton broth and against fungus in the RPMI-1640 medium. Initial inoculums of bacteria and fungus (with concentrations of 5 × 10^5 CFU/mL and 2 × 10^3 CFU/mL, respectively) were exposed to increasing concentrations of lipopeptides solutions over the range of 1–512 µg/mL. […] The 96-well plates filled with appropriate inoculums and the tested compounds were incubated for 18 h at 37 °C. Presented values are the mean of the results obtained in three independent experiments.

[3] = system: Pseudomonas aeruginosa ATCC 9027; format: cell-based; settings: ATCC 9027, 18 h
Description: as §1, §2

[4] = system: Escherichia coli ATCC 25922; format: cell-based; settings: ATCC 25922, 18 h
Description: as §1, §2

[5] = system: Staphylococcus epidermidis ATCC 1922; format: cell-based; settings: ATCC 1922, 18 h
Description: as §1, §2

[6] = system: Candida albicans ATCC 10231; format: cell-based; settings: ATCC 10231, 18 h
Description: as §1, §2

[7] = molecular target: POPG large unilamellar vesicles (LUVs); assay: Isothermal titration calorimetry, binding to POPG; settings: ITC, 298.15 K
Procedure: Isothermal titration calorimetry (ITC) experiments were carried out at 298.15 K using an AutoITC isothermal titration calorimeter (MicroCal Inc., GE Healthcare, Northampton, MA, USA) equipped with a 1.4491 mL sample cell and a reference cell. A typical ITC experiment involved a series of consecutive injections of 10.02 µL aliquots of the titrant (2 µL for the first injection only) into the reaction cell, at an interval of 4 min. The stirrer speed was constantly kept at 300 rpm to provide thorough mixing inside the reaction cell. Three types of ITC experiments were performed. These included lipopeptides binding to POPG, POPC, and LPS. The experiments were carried out by titration of 1.3 mM POPG or POPC LUVs into 0.05 or 0.1 mM lipopeptide solutions and the titration of 0.5 or 0.75 mM lipopeptide solution into 200 or 400 µg/mL LPS solution. The molecular mass of LPS was assumed to be 20,000 Da. To assess the heat of dilution, control experiments were performed by titration of an appropriate titrant into PBS. Final results were evaluated with an ITC module for ORIGIN 7 software, provided by MicroCal, Inc. (Northampton, MA, USA). The binding constant, stoichiometry, and enthalpy of interactions were directly determined from ITC experiment by fitting one of the built-in curve fitting models to the experimental data points. Changes in entropy (∆S°) and the Gibbs free energy (∆G°) were calculated from the following equation: ∆G^°=−RTln(55.5Ka)=∆H^°−T∆S^° where 55.5 is the molar concentration of water, R is the gas constant (1.986 cal·mol^−1·K^−1), and T is the absolute temperature.

[8] = Surface tension measurements (critical aggregation concentration); format: physicochemical; settings: Wilhelmy plate method, aqueous solution, 298 K; for Critical aggregation concentration (CAC): surface tension
Procedure: The surface tension was determined in aqueous solution at 298 K by the Wilhelmy plate method using a Force Tensiometer K100 (Krüss, Hamburg, Germany). The results were presented as a function of decimal logarithm of lipopeptide concentration. The critical aggregation concentration (CAC) was defined as the intersection of two straight lines best fitting to data points before and after reaching the CAC point.

[9] = 1.3 mM POPG LUVs into lipopeptide, PBS, single transition or first line of two binding events
[10] = intersection of two fitted lines

| Compound | IC50, MCF-7 (48h) [1] [µg/mL] | MIC, S. aureus [2] [µg/mL] | MIC, P. aeruginosa [3] [µg/mL] | MIC, E. coli [4] [µg/mL] | MIC, S. epidermidis [5] [µg/mL] | MIC, C. albicans [6] [µg/mL] | pKITC, POPG [7, 9] | γCAC, surface tension at the CAC point [8] [mN/m] | Critical aggregation concentration (CAC) [8] [mg/mL] | Critical aggregation concentration (CAC) [8, 10] [mM] | pKITC, POPG ([7]; second line printed for the peptide (second binding event)) |
| --- | --- | --- | --- | --- | --- | --- | --- | --- | --- | --- | --- |
| CCCCCCCCCCCCCCCC(=O)NCCC[C@H](NC(=O)[C@@H](N)CCCCN)C(=O)N[C@@H](CCCCN)C(N)=O [K(OC16)K-NH2] | 15.47 ± 1.04 (≈ 24.7 µM) | 8 (≈ 12.8 µM) | 8 (≈ 12.8 µM) | 8 (≈ 12.8 µM) | 8 (≈ 12.8 µM) | 8 (≈ 12.8 µM) | 5.79 ± 0.12 | 39.2 | 3.7 | 5.9 | – |
| CCCCCCCCCCCCCCCC(=O)NCCCC[C@H](NC(=O)[C@H](CCCCN)NC(=O)[C@@H](N)CCCCN)C(=O)N[C@@H](CCCCN)C(=O)N[C@@H](CCCCN)C(N)=O [KK(KC16)KK-NH2] (H-KKK(Palmitoyl)KK-NH2) | >25 | 8 (≈ 8.93 µM) | 16 (≈ 17.9 µM) | 4 (≈ 4.46 µM) | 8 (≈ 8.93 µM) | 16 (≈ 17.9 µM) | – | – | – | – | – |
| CCCCCCCCCCCCCCCC(=O)NCC[C@H](NC(=O)[C@@H](N)CCCCN)C(=O)N[C@@H](CCCCN)C(N)=O [K(DabC16)K-NH2] (H-Lys-[Dab](Palmitoyl)-Lys-NH2) | 16.28 ± 1.02 (≈ 26.6 µM) | 8 (≈ 13.1 µM) | 16 (≈ 26.1 µM) | 8 (≈ 13.1 µM) | 8 (≈ 13.1 µM) | 16 (≈ 26.1 µM) | 8.09 ± 0.37 | 39.8 | 4.0 | 6.6 | 6.59 ± 0.26 |
| CCCCCCCCCCCCCCCC(=O)NCCCC[C@H](NC(=O)[C@@H](N)CCCCN)C(=O)N[C@@H](CCCCN)C(N)=O [K(KC16)K-NH2] | 22.71 ± 0.79 (≈ 35.5 µM) | 4 (≈ 6.25 µM) | 16 (≈ 25 µM) | 8 (≈ 12.5 µM) | 8 (≈ 12.5 µM) | 8 (≈ 12.5 µM) | 5.66 ± 0.11 | 43.0 | 3.5 | 5.4 | – |
